# Laboratory results published in patent US4100346A, “Certain 7(o-amino-methyl- or methylaminomethylphenyl- or cyclohexadienyl- or thienylacetamide)-3[1-carboxymethyl-(or ethyl- or propyl-)-tetrazol-5-ylthiomethyl]-3-cephem-4-carboxylic acids” (Bristol-Myers Company, priority 1976, dated 1978).
# Read-outs that look alike come from different tables or passages of the source.
# What was measured:
# Serratia marcescens = test: Growth inhibitory activity, antibiotic dilution technique; conditions: read-out: Minimum inhibitory concentration
# Enterobacter cloacae [1] = test: Intramuscular treatment of systemically infected mice; assay type: in vivo; conditions: im
# Source text: Treatment of Systemically Infected Mice. The procedures were identical with those published previously [Leitner et al., BL-S640, a Cephalosporin With a Broad Spectrum of Antibacterial Activity: Bioavailability and Therapeutic Properties in Rodents, Antimicrob. Agents Chemother.
# (a) the hog gastric mucin used in infections with Staphylococcus aureus No. 2 was purchased from American Laboratories, Inc., Omaha, Neb.
# [2] = Recovery in urine after intramuscular injection; conditions: rat, im, 10 mg/kg
# Klebsiella pneumoniae [3] = test: Effect of inoculum size on susceptibility of Enterobacteriaceae
# [4] = target: staphylococcal β-lactamase, Staphylococcus aureus A9606 (Staphylococcus aureus, UniProt P00807); test: Hydrolysis by β-lactamase in cell-free extracts; assay type: biochemical; conditions: cell-free extract
# Protocol: (§1) Miscellaneous. Methods for determining bactericidal activity and susceptibility to cell-free β-lactamase were those previously used; Leitner et al., BL-S640, A Cephalosporin With a Broad Spectrum of Antibacterial Activity: Properties in vitro, Antimicrob. Agents Chemother. 7:298-305 (1975).
# Susceptibility to β-lactamase. Susceptibility to enzymic hydrolysis was assessed by determining relative rates of hydrolysis by cell-free preparations of various β-lactamases (Table 6). BL-S786 was slightly to markedly less susceptible than the other cephalosporins to hydrolysis by β-lactamases of Type Ia, Ib, IIIa and IVa. All cephalosporins were poor substrates for Type IIa and staphylococcal β-lactamases. The four cephalosporins were hydrolyzed at similar rates by the Type IVb enzyme.
# Edwardsiella tarda = test: Growth inhibitory activity, antibiotic dilution technique; conditions: read-out: Minimum inhibitory concentration
# Citrobacter sp. = test: as above
# Escherichia coli [5] = test: Effect of inoculum size on susceptibility of Enterobacteriaceae
# Erwinia sp. = test: Growth inhibitory activity, antibiotic dilution technique; conditions: read-out: Minimum inhibitory concentration
# Enterobacter cloacae [6] = test: Effect of inoculum size on susceptibility of Enterobacteriaceae
# Bacteroides Fragilis = test: Growth inhibitory activity, antibiotic dilution technique (obligate anaerobes); assay type: cell-based; conditions: 3 strains, geometric mean when applicable, read-out: Minimum inhibitory concentration
# Protocol: Antibiotic spectrum. […] Procedures were as follows:
# c. Obligate anaerobes. The assay was performed on solid medium, consisting of Brain Heart Infusion Broth (BBL) supplemented with 5% defibrinated sheep blood and 1% Ionagar (Colab). […] The plates were incubated at 37° C. for 48 hours under the oxygen-free conditions attained with a Gas-Pak (BBL) Brewer jar system.
# Escherichia coli [7] = test: Minimum growth inhibitory and bactericidal concentrations for Enterobacteriaceae; assay type: cell-based; conditions: for MBC: read-out: MBC, minimum bactericidal concentration; for MIC: read-out: MIC, Minimum growth inhibitory concentration
# Source text: as §1
# (§2) *MIC, Minimum growth inhibitory concentration; MBC, minimum bactericidal
# (§3) concentration; expressed as micrograms per milliliter. The inoculum was […]
# Enterobacter cloacae [8] = test: as above; assay type: cell-based; conditions: for MBC: read-out: MBC, minimum bactericidal concentration; for MIC: read-out: MIC, Minimum growth inhibitory concentration
# Source text: as §1, §2, §3
# Klebsiella pneumoniae [9] = test: as above; assay type: cell-based; conditions: for MBC: read-out: MBC, minimum bactericidal concentration; for MIC: read-out: MIC, Minimum growth inhibitory concentration
# Source text: as §1, §2, §3
# Staphylococcus Aureus = test: Effect of inoculum size on susceptibility of Staphylococcus aureus; assay type: cell-based; conditions: for MICB /MICA: MIC at 10^6 over MIC at 10^2 organisms; for MIC: Staphylococcus aureus, geometric means, read-out: Minimum inhibitory concentration
# Arizona hinshawii = test: Growth inhibitory activity, antibiotic dilution technique; conditions: Salmonella enterica, read-out: Minimum inhibitory concentration
# [10] = Escherichia coli strain 1, inoculum 10^4 cells
# [11] = Escherichia coli strain 2, inoculum 10^4 cells
# [12] = Escherichia coli strain 3, inoculum 10^4 cells
# [13] = Escherichia coli strain 4, inoculum 10^4 cells
# [14] = Escherichia coli strain 5, inoculum 10^4 cells
# [15] = Escherichia coli strain 6, inoculum 10^4 cells
# [16] = Enterobacter cloacae strain 3, inoculum 10^4 cells
# [17] = Enterobacter cloacae strain 4, inoculum 10^4 cells
# [18] = Enterobacter cloacae strain 8, inoculum 10^4 cells
# [19] = Klebsiella pneumoniae strain 1, inoculum 10^4 cells
# [20] = Klebsiella pneumoniae strain 2, inoculum 10^4 cells
# [21] = Klebsiella pneumoniae strain 3, inoculum 10^4 cells
# [22] = Klebsiella pneumoniae strain 4, inoculum 10^4 cells
# [23] = Klebsiella pneumoniae strain 5, inoculum 10^4 cells
# [24] = Klebsiella pneumoniae strain 6, inoculum 10^4 cells
# Chain of staphylococcal β-lactamase, Staphylococcus aureus A9606 (P00807 25-281): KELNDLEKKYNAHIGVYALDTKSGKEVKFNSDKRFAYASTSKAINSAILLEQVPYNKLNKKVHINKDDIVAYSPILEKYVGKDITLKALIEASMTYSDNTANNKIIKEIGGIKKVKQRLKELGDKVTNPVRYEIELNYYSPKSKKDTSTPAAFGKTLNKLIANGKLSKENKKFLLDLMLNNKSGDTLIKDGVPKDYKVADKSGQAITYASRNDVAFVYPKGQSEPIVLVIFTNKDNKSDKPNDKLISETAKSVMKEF
smiles,measurement,setting,value
O=C(Cc1cccs1)N[C@@H]1C(=O)N2C(C(=O)[O-])=C(C[n+]3ccccc3)CS[C@H]12 [Cephaloridine],MIC,Serratia marcescens,> 125 µg/mL
same,ED50,"Enterobacter cloacae [1]; Enterobacter cloacae, 3.5 h, read-out: PD50 /treatment",200 mg/kg
same,PD50 /treatment,"Enterobacter cloacae [1]; mouse, in vivo",> 400 mg/kg
same,dose excreted at 24 h,[2],59%
same,MIC,"Klebsiella pneumoniae [3]; read-out: Minimum Inhibitory Concentration, Klebsiella pneumoniae strain 1, A, Inoculum of 10^2 organisms",2 µg/mL
same,MIC,"Klebsiella pneumoniae [3]; read-out: Minimum Inhibitory Concentration, Klebsiella pneumoniae strain 1, B, Inoculum of 10^6 organisms",4 µg/mL
same,MIC,"Klebsiella pneumoniae [3]; read-out: Minimum Inhibitory Concentration, Klebsiella pneumoniae strain 2, A, Inoculum of 10^2 organisms",2 µg/mL
same,MIC,"Klebsiella pneumoniae [3]; read-out: Minimum Inhibitory Concentration, Klebsiella pneumoniae strain 2, B, Inoculum of 10^6 organisms",8 µg/mL
same,MIC,"Klebsiella pneumoniae [3]; read-out: Minimum Inhibitory Concentration, Klebsiella pneumoniae strain 3, A, Inoculum of 10^2 organisms",2 µg/mL
same,MIC,"Klebsiella pneumoniae [3]; read-out: Minimum Inhibitory Concentration, Klebsiella pneumoniae strain 3, B, Inoculum of 10^6 organisms",16 µg/mL
same,MIC,"Klebsiella pneumoniae [3]; read-out: Minimum Inhibitory Concentration, Klebsiella pneumoniae strain 4, A, Inoculum of 10^2 organisms",2 µg/mL
same,MIC,"Klebsiella pneumoniae [3]; read-out: Minimum Inhibitory Concentration, Klebsiella pneumoniae strain 4, B, Inoculum of 10^6 organisms",8 µg/mL
same,MIC,"Klebsiella pneumoniae [3]; read-out: Minimum Inhibitory Concentration, Klebsiella pneumoniae strain 5, A, Inoculum of 10^2 organisms",2 µg/mL
same,MIC,"Klebsiella pneumoniae [3]; read-out: Minimum Inhibitory Concentration, Klebsiella pneumoniae strain 5, B, Inoculum of 10^6 organisms",16 µg/mL
same,MIC,"Klebsiella pneumoniae [3]; read-out: Minimum Inhibitory Concentration, Klebsiella pneumoniae strain 6, A, Inoculum of 10^2 organisms",2 µg/mL
same,MIC,"Klebsiella pneumoniae [3]; read-out: Minimum Inhibitory Concentration, Klebsiella pneumoniae strain 6, B, Inoculum of 10^6 organisms",16 µg/mL
same,Relative Rate of Hydrolysis (benzylpenicillin = 100),[4],< 0.5
same,MIC,Edwardsiella tarda,1 µg/mL
same,MIC,"Citrobacter sp.; read-out: Minimum inhibitory concentration, Citrobacter sp., 1 strain",> 125 µg/mL
same,MIC,"Citrobacter sp.; read-out: Minimum inhibitory concentration, Citrobacter sp., 4 strains, geometric mean when applicable",> 125 µg/mL
same,MIC,"Escherichia coli [5]; read-out: Minimum Inhibitory Concentration, Escherichia coli strain 1, A, Inoculum of 10^2 organisms",2 µg/mL
same,MIC,"Escherichia coli [5]; read-out: Minimum Inhibitory Concentration, Escherichia coli strain 1, B, Inoculum of 10^6 organisms",8 µg/mL
same,MIC,"Escherichia coli [5]; read-out: Minimum Inhibitory Concentration, Escherichia coli strain 2, A, Inoculum of 10^2 organisms",4 µg/mL
same,MIC,"Escherichia coli [5]; read-out: Minimum Inhibitory Concentration, Escherichia coli strain 2, B, Inoculum of 10^6 organisms",16 µg/mL
same,MIC,"Escherichia coli [5]; read-out: Minimum Inhibitory Concentration, Escherichia coli strain 3, A, Inoculum of 10^2 organisms",2 µg/mL
same,MIC,"Escherichia coli [5]; read-out: Minimum Inhibitory Concentration, Escherichia coli strain 3, B, Inoculum of 10^6 organisms",4 µg/mL
same,MIC,"Escherichia coli [5]; read-out: Minimum Inhibitory Concentration, Escherichia coli strain 4, A, Inoculum of 10^2 organisms",2 µg/mL
same,MIC,"Escherichia coli [5]; read-out: Minimum Inhibitory Concentration, Escherichia coli strain 4, B, Inoculum of 10^6 organisms",4 µg/mL
same,MIC,"Escherichia coli [5]; read-out: Minimum Inhibitory Concentration, Escherichia coli strain 5, A, Inoculum of 10^2 organisms",4 µg/mL
same,MIC,"Escherichia coli [5]; read-out: Minimum Inhibitory Concentration, Escherichia coli strain 5, B, Inoculum of 10^6 organisms",8 µg/mL
same,MIC,"Escherichia coli [5]; read-out: Minimum Inhibitory Concentration, Escherichia coli strain 6, A, Inoculum of 10^2 organisms",2 µg/mL
same,MIC,"Escherichia coli [5]; read-out: Minimum Inhibitory Concentration, Escherichia coli strain 6, B, Inoculum of 10^6 organisms",8 µg/mL
same,MIC,"Escherichia coli [5]; read-out: Minimum Inhibitory Concentration, Escherichia coli strain 7, A, Inoculum of 10^2 organisms",2 µg/mL
same,MIC,"Escherichia coli [5]; read-out: Minimum Inhibitory Concentration, Escherichia coli strain 7, B, Inoculum of 10^6 organisms",4 µg/mL
same,MIC,Erwinia sp.,2 µg/mL
same,MIC,"Enterobacter cloacae [6]; read-out: Minimum Inhibitory Concentration, Enterobacter cloacae strain 1, A, Inoculum of 10^2 organisms",4 µg/mL
same,MIC,"Enterobacter cloacae [6]; read-out: Minimum Inhibitory Concentration, Enterobacter cloacae strain 1, B, Inoculum of 10^6 organisms",> 250 µg/mL
same,MIC,"Enterobacter cloacae [6]; read-out: Minimum Inhibitory Concentration, Enterobacter cloacae strain 2, A, Inoculum of 10^2 organisms",125 µg/mL
same,MIC,"Enterobacter cloacae [6]; read-out: Minimum Inhibitory Concentration, Enterobacter cloacae strain 2, B, Inoculum of 10^6 organisms",> 250 µg/mL
same,MIC,"Enterobacter cloacae [6]; read-out: Minimum Inhibitory Concentration, Enterobacter cloacae strain 3, A, Inoculum of 10^2 organisms",16 µg/mL
same,MIC,"Enterobacter cloacae [6]; read-out: Minimum Inhibitory Concentration, Enterobacter cloacae strain 3, B, Inoculum of 10^6 organisms",250 µg/mL
same,MIC,"Enterobacter cloacae [6]; read-out: Minimum Inhibitory Concentration, Enterobacter cloacae strain 4, A, Inoculum of 10^2 organisms",> 250 µg/mL
same,MIC,"Enterobacter cloacae [6]; read-out: Minimum Inhibitory Concentration, Enterobacter cloacae strain 4, B, Inoculum of 10^6 organisms",> 250 µg/mL
same,MIC,"Enterobacter cloacae [6]; read-out: Minimum Inhibitory Concentration, Enterobacter cloacae strain 5, A, Inoculum of 10^2 organisms",63 µg/mL
same,MIC,"Enterobacter cloacae [6]; read-out: Minimum Inhibitory Concentration, Enterobacter cloacae strain 5, B, Inoculum of 10^6 organisms",> 250 µg/mL
same,MIC,Bacteroides Fragilis,79 µg/mL
same,MBC,Escherichia coli [7]; [10],4 µg/mL
same,MIC,Escherichia coli [7]; [10],4 µg/mL
same,MBC,Escherichia coli [7]; [11],16 µg/mL
same,MIC,Escherichia coli [7]; [11],16 µg/mL
same,MBC,Escherichia coli [7]; [12],2 µg/mL
same,MIC,Escherichia coli [7]; [12],2 µg/mL
same,MBC,Escherichia coli [7]; [13],4 µg/mL
same,MIC,Escherichia coli [7]; [13],4 µg/mL
same,MBC,Escherichia coli [7]; [14],4 µg/mL
same,MIC,Escherichia coli [7]; [14],4 µg/mL
same,MBC,Escherichia coli [7]; [15],8 µg/mL
same,MIC,Escherichia coli [7]; [15],4 µg/mL
same,MBC,Enterobacter cloacae [8]; [16],16 µg/mL
same,MIC,Enterobacter cloacae [8]; [16],16 µg/mL
same,MBC,Enterobacter cloacae [8]; [17],> 250 µg/mL
same,MIC,Enterobacter cloacae [8]; [17],> 250 µg/mL
same,MBC,Enterobacter cloacae [8]; [18],> 250 µg/mL
same,MIC,Enterobacter cloacae [8]; [18],> 250 µg/mL
same,MBC,Klebsiella pneumoniae [9]; [19],4 µg/mL
same,MIC,Klebsiella pneumoniae [9]; [19],2 µg/mL
same,MBC,Klebsiella pneumoniae [9]; [20],4 µg/mL
same,MIC,Klebsiella pneumoniae [9]; [20],4 µg/mL
same,MBC,Klebsiella pneumoniae [9]; [21],2 µg/mL
same,MIC,Klebsiella pneumoniae [9]; [21],2 µg/mL
same,MBC,Klebsiella pneumoniae [9]; [22],4 µg/mL
same,MIC,Klebsiella pneumoniae [9]; [22],4 µg/mL
same,MBC,Klebsiella pneumoniae [9]; [23],8 µg/mL
same,MIC,Klebsiella pneumoniae [9]; [23],8 µg/mL
same,MBC,Klebsiella pneumoniae [9]; [24],2 µg/mL
same,MIC,Klebsiella pneumoniae [9]; [24],2 µg/mL
same,MICB /MICA,"Staphylococcus Aureus; Lacking penicillinase, 3 strains",1.6
same,MICB /MICA,"Staphylococcus Aureus; Penicillinase producer, 26 strains",20
same,MIC,"Staphylococcus Aureus; Lacking penicillinase, 3 strains, A, Inoculum of 10^2 organisms",0.025 µg/mL
same,MIC,"Staphylococcus Aureus; Lacking penicillinase, 3 strains, B, inoculum of 10^6 organisms",0.039 µg/mL
same,MIC,"Staphylococcus Aureus; Penicillinase producer, 26 strains, A, Inoculum of 10^2 organisms",0.077 µg/mL
same,MIC,"Staphylococcus Aureus; Penicillinase producer, 26 strains, B, inoculum of 10^6 organisms",1.6 µg/mL
same,effect of cell concentration on growth inhibitory activity,Staphylococcus Aureus; penicillinase-producing strains,sharply
same,MIC,Arizona hinshawii,2 µg/mL
